Assay [1] relates to Escherichia coli W 3636. Nature of the assay: Antibacterial activity, agar plate dilution method: E. coli W 3636. It counts as cell-based. As to conditions: Mueller-Hinton agar, 10^6 cells/ml, 37° C., 18 to 24 hours. As for the experimental part:
Antibacterial activity of the present compound was examined by agar plate dilution method while following the standard method of Japan Society of Chemotherapy and using the following strain:
3. Escherichia coli W 3636
Namely, after inoculating each bacteria on Mueller-Hinton culture medium, the inoculum was incubated for 18 to 48 hours at 37° C. and after adjusting the number of cells of each bacteria so as to contain 10^6 in one ml, the thus prepared specimen was used as the test bacterial liquid.
Each of the present substances (the substance in Example 1 and the substance in Example 2) was dispersed in aqueous physiological saline solution at a predetermined concentration and the thus prepared dispersion was added to 9 times by volume of the culture medium for examining sensitivity (Mueller-Hinton culture medium) to prepare agar plates.
On each agar plate, each of the test bacterial liquid was smeared at a width of about 2 cm, and the thus smeared agar plate was incubated for 18 to 24 hours at 37° C.

The test system of assay [2] is Escherichia coli. Nature of the assay: Effect on the intestinal bacterial colonies: E. coli in feces. As to conditions: after administration; 100 mg/kg orally once a day, 2 days; before administration 6.4. Type of assay: in vivo, Escherichia coli (feces of female ICR-JCL mice). As for the experimental part:
(§1) Effect of the present compound on the intestinal bacterial colonies was examined as follows.
(§2) The present compound prepared in Example 2 was orally administered to each of 5 animals of a group of female ICR-JCL mice of 6-weeks-old at a daily dosage of 100 mg/kg once a day for continuous 2 days. Feces of each of the mice were collected before and after one day of the administration, and after diluting thereof with 100 times by weight of an anaerobic diluent (an aqueous phosphoric acid buffer) the thus diluted feces were ground, and 0.1 ml of the thus ground and diluted feces was smeared on each culture medium for each bacterial species (shown in Table 1).
(§3) After incubating the thus prepared culture media at 25° C. for one to five days aerobically in the cases of Escherichia coli, Pseudomonas aeruginosa and the Streptococcus species or anaerobically in the cases of the Lactobacillus acidophilus, Lactobacillus bifidus and the Bacterioides species, the number of each bacteria proliferating on the culture medium was counted.
DHL aerobic, 37° C., one day

Assay [3] has as its system Lactobacillus bifidus. In words: Effect on the intestinal bacterial colonies: L. bifidus in feces. As to conditions: after administration; 100 mg/kg orally once a day, 2 days; before administration 8.5. It counts as in vivo, Lactobacillus bifidus (feces of female ICR-JCL mice). As for the experimental part:
as §1, §2, §3
(5) Lactobacillus bifidus

In assay [4] the test system is Proteus vulgaris IAM 1025. Nature of the assay: Antibacterial activity, agar plate dilution method: P. vulgaris IAM 1025. Type of assay: cell-based. As to conditions: Mueller-Hinton agar, 10^6 cells/ml, 37° C., 18 to 24 hours. Here is the method:
(§4) Antibacterial activity of the present compound was examined by agar plate dilution method while following the standard method of Japan Society of Chemotherapy and using the following strain: 4. Proteus vulgaris IAM 1025 Namely, after inoculating each bacteria on Mueller-Hinton culture medium, the inoculum was incubated for 18 to 48 hours at 37° C. and after adjusting the number of cells of each bacteria so as to contain 10^6 in one ml, the thus prepared specimen was used as the test bacterial liquid. Each of the present substances (the substance in Example 1 and the substance in Example 2) was dispersed in aqueous physiological saline solution at a predetermined concentration and the thus prepared dispersion was added to 9 times by volume of the culture medium for examining sensitivity (Mueller-Hinton culture medium) to prepare agar plates. On each agar plate, each of the test bacterial liquid was smeared at a width of about 2 cm, and the thus smeared agar plate was incubated for 18 to 24 hours at 37° C.

In assay [5] the test system is Staphylcoccus aureus IAM 1011. Nature of the assay: Activation by rat liver homogenate (S-9 mix), penicillin cup proliferation-inhibiting circle. Type of assay: cell-based, Staphylococcus aureus. As to conditions: 20 min at 37° C., inhibiting circle diameter as % of that of the starting compound; for Degree of activation, Before adding S-9 mix: phosphoric acid buffer control; for Degree of activation, After adding S-9 mix: rat liver S-9 mix. As for the experimental part:
As an enzyme for activating metabolism of the present compound, rat liver homogenate (S-9, manufactured by Oriental Yeast Co., Ltd.) was used in preparing the following mixture (hereinafter referred to as S-9 mix).
Composition of S-9 mix (amount in one ml of S-9 mix)
A test solution of present compound was prepared by mixing 0.1 ml of a dispersion of the present compound and 0.9 ml of the thus prepared S-9 mix and shaking the thus prepared mixture for 20 min at 37° C. As a control, a mixture was prepared by mixing 0.1 ml of the dispersion of the present compound and 0.9 ml of the 0.2M phosphoric acid buffer and shaking the mixture for 20 min at 37° C.
As the test bacteria, Staphylcoccus aureus IAM 1011 was inoculated in Mueller-Hinton culture medium and after incubating the inoculum for 18 hours at 37° C., the number of the bacteria was adjusted to 10^8 /ml and the bacterial preparation was mixed with 50 times by volume of Mueller-Hinton culture medium, and an agar plate was prepared from the mixture.
After placing a penicillin cup of 8 mm in diameter on the thus prepared agar plate, 0.1 ml of the test solution of present compound prepared above was put into the cup, and after leaving the agar plate for 2 hours at 4° C., the agar plate was subjected to culture for 18 hours at 37° C. and the diameter of a proliferation-inhibiting circle appearing on the agar plate was measured.
The same procedures were carried out except for using 7β-[2-(2-amino-4-thiazolyl)-(Z)-2-methoxyiminoacetamido]-3-[(2-methyl-1,3,4-thiadiazol-5-yl)thiomethyl]-3-cephem-4-carboxylic acid used as a starting compound for producing the present compound in Example 1 instead of the present compound.
The percentage of the diameter of a proliferation-inhibiting circle due to the present compound to that due to the starting compound mentioned above was obtained, and from the following standards, the degree of activation was obtained.

Assay [6] has as its system Pseudomonas aeruginosa. In words: Effect on the intestinal bacterial colonies: P. aeruginosa in feces. Type of assay: in vivo, Pseudomonas aeruginosa (feces of female ICR-JCL mice). The following applies: after administration; 100 mg/kg orally once a day, 2 days; before administration <3.0. Here is the method:
as §1, §2, §3
(2) Pseudomonas aeruginosa

Assay [7] relates to Pseudomonas aeruginosa IAM 1514. In words: Antibacterial activity, agar plate dilution method: P. aeruginosa IAM 1514. It counts as cell-based. As to conditions: Mueller-Hinton agar, 10^6 cells/ml, 37° C., 18 to 24 hours. Here is the method: as §4, with “5. Pseudomonas aeruginosa” for “4. Proteus vulgaris”, “1514” for “1025”

On to `CO/N=C(\C(=O)N[C@@H]1C(=O)N2C(C(=O)OCOC(=O)C(C)(C)C)=C(CSc3nnc(C)s3)CS[C@H]12)c1csc(NC(=O)C(Cl)Cl)n1` [Example 2], for which, in assay [1], the “minimal inhibitory concentration (MIC), E. coli W 3636” value is reported as not below 100. Also, the “Logarithmic value of the number of bacterial cells per one gram of feces, (1) E. coli” value in assay [2] is listed as 6.4 Logarithmic value of the number of bacterial cells per one gram of feces. The “Logarithmic value of the number of bacterial cells per one gram of feces, (5) L. bifidus” value in assay [3] was 8.5 Logarithmic value of the number of bacterial cells per one gram of feces. Moreover, the “minimal inhibitory concentration (MIC), Pro. vulgaris IAM 1025” value in assay [4] was 50. Also, in assay [5], the “Degree of activation, Before adding S-9 mix” value is reported as “± (0 to 1%)” and the “Degree of activation, After adding S-9 mix” value is recorded as “++++ (100 to 150%)”. For the same compound, the “Logarithmic value of the number of bacterial cells per one gram of feces, (2) P. aeruginosa” value in assay [6] was < 3.0 Logarithmic value of the number of bacterial cells per one gram of feces. Besides, in assay [7], the “minimal inhibitory concentration (MIC), P. aeruginosa IAM 1514” value is not below 100.

With `CO/N=C(\C(=O)N[C@@H]1C(=O)N2C(C(=O)O)=C(CSc3nnc(C)s3)CS[C@H]12)c1csc(NC(=O)C(Cl)Cl)n1` [Example 1, 7β-[2-(2-dichloroacetamido-4-thiazolyl)-(Z)-2-methoxyiminoacetamido]-3-[(2-methyl-1,3,4-thiadiazol-5-yl)thiomethyl]-3-cephem-4-carboxylic acid], in assay [1], the “minimal inhibitory concentration (MIC), E. coli W 3636” value worked out at 0.4. In addition, in assay [4], the “minimal inhibitory concentration (MIC), Pro. vulgaris IAM 1025” value turned out to be 0.05. In addition, in assay [5], the “Degree of activation, Before adding S-9 mix” value is recorded as “++++ (100 to 150%)” and the “Degree of activation, After adding S-9 mix” value is “++++ (100 to 150%)”. For the same compound, the “minimal inhibitory concentration (MIC), P. aeruginosa IAM 1514” value in assay [7] is on record as 50.

For the origin of these results see patent US4734409A, “Cephalosporin derivative, process for producing the same and pharmaceutical composition containing the same” (Kureha Kagaku Kogyo Kabushiki Kaisha, priority 1984, dated 1988).
